Experimental data: ChEMBL document CHEMBL1201862, “PubChem BioAssay data set” (2004)
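Exposure lasted 48 hours, with cells grown in 96-well plates and compounds tested at five concentrations. GI50: concentration for 50% inhibition of growth.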 Active and inactive are the calls of the source. No stated cut-off is given here; in the data, active = GI50 up to about 1.1 µM and inactive = higher.

How the values were obtained:
Test in all cases: growth of human tumour cells (NCI), 48 h
[1] = system: DMS-114
[2] = system: LXFL 529
[3] = system: SNB-78
[4] = system: M19-MEL
[5] = system: KM-20L2
[6] = system: DMS-273
[7] = system: RXF 631
[8] = system: DU-145
[9] = system: MDA-N

Row | SMILES | GI50 [4] | GI50 [5] | GI50 [6] | GI50 [8] | GI50 [9] | further results
1 | CC1=Nc2c(O)nc(S)nc2NC(c2ccc(Cl)c(Cl)c2)C1 (stereo unspecified) | 18.5 µM (inactive) | 25.6 µM (inactive) | 26.1 µM (inactive) | – | – | GI50 [1]: 35.6 µM (inactive); GI50 [2]: 19.4 µM (inactive); GI50 [3]: 60.4 µM (inactive)
2 | Cc1ccc(S(=O)(=O)O/N=C2\CCC\C2=C/c2ccccc2)cc1 | 20.1 µM (inactive) | 22.1 µM (inactive) | 32.8 µM (inactive) | – | – | GI50 [7]: 16.9 µM (inactive); GI50 [2]: 16.6 µM (inactive); GI50 [3]: 1.31 µM (inactive)
3 | CC1CCCN(CC(O)CN2CCCc3ccccc32)C1 (stereo unspecified) | – | – | – | > 100 µM (inactive) | > 100 µM (inactive) | –
4 | Cn1c(=O)c2c(nc(NCCCCl)n2CC(=O)NCCCCl)n(C)c1=O | – | – | – | > 100 µM (inactive) | > 100 µM (inactive) | –
5 | O/N=C(\CC(O)(C(F)(F)F)C(F)(F)F)c1cccs1 | – | – | – | > 10 µM (inactive) | > 10 µM (inactive) | –
6 | CC(=O)OCC1OC(n2ncc(=O)[nH]c2=O)C(OC(C)=O)C1OC(C)=O (stereo unspecified) | – | – | – | 23 µM (inactive) | 32.3 µM (inactive) | –
7 | COC(=O)C1=C(C(=O)OC)C(OO)(c2ccccc2)OC1=O (stereo unspecified) | – | – | – | > 100 µM (inactive) | 91.4 µM (inactive) | –
8 | O=C1NC(N2CCCC(CO)C2)=N/C1=C\c1cccs1 (stereo unspecified) | – | – | – | > 100 µM (inactive) | > 100 µM (inactive) | –
9 | O=C1Nc2cccc3ncn(c23)C2=C1CCCC2 | > 100 µM (inactive) | > 100 µM (inactive) | > 100 µM (inactive) | – | – | GI50 [1]: > 100 µM (inactive); GI50 [2]: > 100 µM (inactive); GI50 [3]: > 100 µM (inactive)
10 | CC1CCC(O)(C(C)(C(=O)O)c2ccccc2)CC1 (stereo unspecified) | – | – | – | > 100 µM (inactive) | > 100 µM (inactive) | –
11 | Cn1c(=O)n2n(c1=O)C([S+]([O-])c1ccccc1)C2 (stereo unspecified) | – | – | – | > 100 µM (inactive) | > 100 µM (inactive) | –
12 | COc1ccc2c(c1)CCCC1C3=NCCC3(C)CSC21 (stereo unspecified) | 72.1 µM (inactive) | 22.8 µM (inactive) | 36.6 µM (inactive) | – | – | GI50 [1]: 37.8 µM (inactive); GI50 [2]: 58.5 µM (inactive); GI50 [3]: > 100 µM (inactive)
13 | CC(=O)/C(=C/NC(=S)Nc1ccccc1)C(=O)Nc1ccccc1C | – | – | – | > 100 µM (inactive) | > 100 µM (inactive) | –
14 | CCOC(=O)c1c(N2CCCC2)[nH]c(=O)c(C(c2ccc(N(C)C)cc2)c2c(O)c(C(=O)OCC)c(N3CCCC3)[nH]c2=O)c1O | – | – | – | > 100 µM (inactive) | > 100 µM (inactive) | –
15 | CC(C)(C)OC(=O)NCCCCC(NC(=O)OCc1ccccc1)C(N)=O (stereo unspecified) | – | – | – | > 100 µM (inactive) | > 100 µM (inactive) | –
16 | COc1ccc(C2(O)C(S(=O)(=O)c3ccc(C)cc3)=Cc3ccc(OC)cc32)cc1 (stereo unspecified) | – | – | – | 71.3 µM (inactive) | > 100 µM (inactive) | –
17 | NC(=O)C(=CNC(=S)Nc1cccc(C(F)(F)F)c1)C(N)=O | – | – | – | > 100 µM (inactive) | > 100 µM (inactive) | –
18 | OCC1C(OCc2ccccc2)C(OCc2ccccc2)C(OCc2ccccc2)CN1Cc1ccccc1 (stereo unspecified) | – | – | – | > 100 µM (inactive) | 35.4 µM (inactive) | –
19 | CC[P+]1(CC)CCCC1 | > 100 µM (inactive) | > 100 µM (inactive) | > 100 µM (inactive) | – | – | GI50 [1]: > 100 µM (inactive); GI50 [2]: > 100 µM (inactive); GI50 [3]: > 100 µM (inactive)
20 | CC1=CC2C(C=C1)S(=O)(=O)N1CC21c1ccccc1 (stereo unspecified) | > 100 µM (inactive) | > 100 µM (inactive) | > 100 µM (inactive) | – | – | GI50 [1]: 21.4 µM (inactive); GI50 [2]: > 100 µM (inactive); GI50 [3]: > 100 µM (inactive)
21 | CC(C)(Cl)C(Br)CCC(C)(Cl)C(Br)CBr (stereo unspecified) | – | – | – | 29 µM (inactive) | 31 µM (inactive) | –
22 | CCOC(=O)CCCN | – | – | – | > 100 µM (inactive) | > 100 µM (inactive) | –
23 | NC(=O)c1cn(C2OC(CO)C(O)C2O)c2nc[n+]([O-])c(N)c12 (stereo unspecified) | – | – | – | 0.104 µM (active) | – | –
24 | O=[N+]([O-])c1ccc2c(/N=N/c3ccc4ccccc4c3O)c(O)cc(S(=O)(=O)O)c2c1 | – | – | – | 18.7 µM (inactive) | – | –
25 | COC1CC(O[C@H]2CC[C@@]3(C)C(=CCC4(O)C3CCC35C(=O)OC6(C)O[C@@]43CCC65)C2)OC(C)C1O (stereo partly specified) | > 100 µM (inactive) | > 100 µM (inactive) | > 100 µM (inactive) | – | – | GI50 [1]: > 100 µM (inactive); GI50 [2]: > 100 µM (inactive); GI50 [3]: > 100 µM (inactive)
26 | C[C@@H](C1CCC2C3C(=CC(=O)[C@@]21C)[C@H](C)[C@]1(CCC(=O)O1)C1OC31)[C@H]1C[C@]2(C)O[C@@](C)(O1)OC2(C)C (stereo partly specified) | > 100 µM (inactive) | > 100 µM (inactive) | > 100 µM (inactive) | – | – | GI50 [7]: > 100 µM (inactive); GI50 [1]: > 100 µM (inactive); GI50 [2]: > 100 µM (inactive)
27 | C/N=C(\S)N/N=C/C(C)=N/N/C(S)=N/C | > 100 µM (inactive) | 0.631 µM (active) | > 100 µM (inactive) | – | – | GI50 [1]: 0.0414 µM (active); GI50 [3]: > 100 µM (inactive)
28 | C=CCOn1c(C=C)nc2c(C)cccc21 | – | – | – | – | 3.13 µM (inactive) | –
29 | Cc1ccc2c(O)cc(-c3ccc4ccccc4c3)nc2n1 | – | – | – | 15.5 µM (inactive) | – | –
30 | CN(C)c1ccc2cc3ccc(N(C)C)cc3nc2c1 [ACRIDINE ORANGE] | – | – | – | 1.32 µM (inactive) | 1.19 µM (inactive) | –
